Target: Thymidine phosphorylase (Escherichia coli K-12, UniProt P07650)
Test: Inhibition of Escherichia coli thymidine phosphorylase pretreated for 10 mins followed by substrate addition measured at 10 mins interval for 30 mins by spectrophotometric method; call rule not given here

Chain of Thymidine phosphorylase (P07650 whole entry): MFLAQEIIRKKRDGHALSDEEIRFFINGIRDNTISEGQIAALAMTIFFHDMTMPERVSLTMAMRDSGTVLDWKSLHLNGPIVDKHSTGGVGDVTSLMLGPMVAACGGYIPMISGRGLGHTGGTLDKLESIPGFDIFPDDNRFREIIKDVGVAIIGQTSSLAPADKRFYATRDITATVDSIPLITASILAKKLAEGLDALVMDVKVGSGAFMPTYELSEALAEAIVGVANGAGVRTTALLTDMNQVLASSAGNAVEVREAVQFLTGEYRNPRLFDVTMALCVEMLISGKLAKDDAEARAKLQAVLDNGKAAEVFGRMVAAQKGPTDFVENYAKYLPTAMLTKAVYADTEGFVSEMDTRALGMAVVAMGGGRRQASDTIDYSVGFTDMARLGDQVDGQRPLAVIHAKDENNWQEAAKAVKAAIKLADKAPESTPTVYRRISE

SMILES | IC50 (read-out: IC50) [µM] | IC50
Fc1cccc(-c2nnc(-c3ccc(C(c4c[nH]c5ccc(Cl)cc45)c4c[nH]c5ccc(Cl)cc45)cc3)o2)c1 | 29.4 | 
Oc1ccc(-c2nnc(-c3ccc(C(c4c[nH]c5ccc(Cl)cc45)c4c[nH]c5ccc(Cl)cc45)cc3)o2)cc1O | 12.2 | 
Oc1cccc(-c2nnc(-c3ccc(C(c4c[nH]c5ccc(Cl)cc45)c4c[nH]c5ccc(Cl)cc45)cc3)o2)c1O | 9.3 | 
Clc1ccc2[nH]cc(C(c3ccc(-c4nnc(-c5ccccn5)o4)cc3)c3c[nH]c4ccc(Cl)cc34)c2c1 | 38.4 | 
Fc1ccccc1-c1nnc(-c2ccc(C(c3c[nH]c4ccc(Cl)cc34)c3c[nH]c4ccc(Cl)cc34)cc2)o1 | 17.3 | 
Oc1ccccc1-c1nnc(-c2ccc(C(c3c[nH]c4ccc(Cl)cc34)c3c[nH]c4ccc(Cl)cc34)cc2)o1 | 43.5 | 
COc1ccc(O)c(-c2nnc(-c3ccc(C(c4c[nH]c5ccc(Cl)cc45)c4c[nH]c5ccc(Cl)cc45)cc3)o2)c1 | 45.2 | 
Cc1ccccc1-c1nnc(-c2ccc(C(c3c[nH]c4ccc(Cl)cc34)c3c[nH]c4ccc(Cl)cc34)cc2)o1 |  | Not Active
Cc1cccc(-c2nnc(-c3ccc(C(c4c[nH]c5ccc(Cl)cc45)c4c[nH]c5ccc(Cl)cc45)cc3)o2)c1 |  | Not Active
Clc1ccc2[nH]cc(C(c3ccc(-c4nnc(-c5cccnc5)o4)cc3)c3c[nH]c4ccc(Cl)cc34)c2c1 |  | Not Active
Oc1cccc(-c2nnc(-c3ccc(C(c4c[nH]c5ccc(Cl)cc45)c4c[nH]c5ccc(Cl)cc45)cc3)o2)c1 | 53.5 | 
Clc1ccc2[nH]cc(C(c3ccc(-c4nnc(-c5ccccc5Cl)o4)cc3)c3c[nH]c4ccc(Cl)cc34)c2c1 | 29.3 | 
COc1ccc(-c2nnc(-c3ccc(C(c4c[nH]c5ccc(Cl)cc45)c4c[nH]c5ccc(Cl)cc45)cc3)o2)cc1O | 33.5 | 
COc1ccc(-c2nnc(-c3ccc(C(c4c[nH]c5ccc(Cl)cc45)c4c[nH]c5ccc(Cl)cc45)cc3)o2)c(O)c1 | 35.2 | 
Oc1ccc(O)c(-c2nnc(-c3ccc(C(c4c[nH]c5ccc(Cl)cc45)c4c[nH]c5ccc(Cl)cc45)cc3)o2)c1 | 6.1 | 
Oc1ccc(-c2nnc(-c3ccc(C(c4c[nH]c5ccc(Cl)cc45)c4c[nH]c5ccc(Cl)cc45)cc3)o2)c(O)c1 | 3.5 | 

Further lines, results first:

IC50 (read-out: IC50) [µM] | IC50 | SMILES
 | Not Active | Clc1ccc2[nH]cc(C(c3ccc(-c4nnc(-c5ccncc5)o4)cc3)c3c[nH]c4ccc(Cl)cc34)c2c1
9.1 |  | Fc1ccc(-c2nnc(-c3ccc(C(c4c[nH]c5ccc(Cl)cc45)c4c[nH]c5ccc(Cl)cc45)cc3)o2)cc1
 | Not Active | O=[N+]([O-])c1ccc(-c2nnc(-c3ccc(C(c4c[nH]c5ccc(Cl)cc45)c4c[nH]c5ccc(Cl)cc45)cc3)o2)cc1
 | Not Active | Cc1ccc(-c2nnc(-c3ccc(C(c4c[nH]c5ccc(Cl)cc45)c4c[nH]c5ccc(Cl)cc45)cc3)o2)cc1
24.5 |  | Oc1ccc(-c2nnc(-c3ccc(C(c4c[nH]c5ccc(Cl)cc45)c4c[nH]c5ccc(Cl)cc45)cc3)o2)cc1
46.2 |  | Clc1ccc(-c2nnc(-c3ccc(C(c4c[nH]c5ccc(Cl)cc45)c4c[nH]c5ccc(Cl)cc45)cc3)o2)cc1
 | Not Active | O=[N+]([O-])c1cccc(-c2nnc(-c3ccc(C(c4c[nH]c5ccc(Cl)cc45)c4c[nH]c5ccc(Cl)cc45)cc3)o2)c1
54.6 |  | Clc1cccc(-c2nnc(-c3ccc(C(c4c[nH]c5ccc(Cl)cc45)c4c[nH]c5ccc(Cl)cc45)cc3)o2)c1
64.2 |  | O=[N+]([O-])c1ccccc1-c1nnc(-c2ccc(C(c3c[nH]c4ccc(Cl)cc34)c3c[nH]c4ccc(Cl)cc34)cc2)o1

Source: ChEMBL document CHEMBL4118233, “Rational design of bis-indolylmethane-oxadiazole hybrids as inhibitors of thymidine phosphorylase” (Bioorg Med Chem, 2018)
